Results: patent publication US10940188B2, “Compounds and methods for treatment and prevention of Flavivirus infection” (priority 2016, dated 2021)
Structures can show the parent of a compound that is named as a salt. Where two headings read alike, the source gives them in different places. Numbered stars: 1 amine (or outer) side, 2 acyl side, 3 side chain; on linkers, the order of the positions; unused ones are H or OH. Bridge positions count the residues as written; N and C are the ends. Square brackets hold non-standard residues; d marks the D form. Peptide text beside a SMILES is read from it. I, II: the chains in the order shown. Actinocin(9to1) = Cc1c2oc3c(C)ccc(C(=O)[*:1])c3nc-2c(C(=O)[*:2])c(N)c1=O; NMeV = CN[C@H](C(=O)O)C(C)C; Sar = CNCC(=O)O

How the values were obtained:
[1] = tested on: ZIKV MR766 NS1; assay: microbe, parasite or virus in culture; format: cell-based, Zika virus; details: read-out: NS1-IC50
Experimental: A one-step NS1 TR-FRET (Time-resolved fluorescence resonance energy transfer) assay for a screen of anti-ZIKV compounds was carried out. Human embryonic kidney cell line HEK293 cells were seeded into 384-well plates and infected with ZIKV MR766 at a MOI of 0.5 for 2 days. The FRET assay was performed with two clones of anti-NS1 antibody (ab) differentially labelled with donor and acceptor fluorophores.

[2] = tested on: HEK293 cells; assay: Toxicity IC50 (cell-killing activity) of the NS1 TR-FRET screen; format: cell-based, human
[3] = Homo sapiens, HEK293, cell-killing activity, read-out: Tox IC50
[4] = HEK293 cells, ZIKV MR766, MOI 0.5, 2 days, virus-inhibiting activity
[5] = cell-killing activity, read-out: Tox IC50

Compound | IC50 ([1]; Zika virus, HEK293, 48 h) | IC50 [1, 4] | Tox IC50 ([2]; cell-killing activity) | further results
O=C1c2c(O)ccc(O)c2C(=O)c2c(NCCNCCO)ccc(NCCNCCO)c21 [Mitoxantrone] | 232 nM | – | – | IC50 [2, 3]: 50000 nM
C[C@]1(CO)CN(c2cc(C(=O)Nc3ccc4c(c3)-c3c(c(C(N)=O)nn3-c3ccc(F)cc3)CC4)c(Cl)cn2)C[C@@]1(C)CO [PF-184] | – | 388 nM | No | –
NC(=O)Nc1cc(-c2cccc(F)c2)sc1C(=O)N[C@H]1CCCNC1 [AZD-7762] | 366 nM | – | No | –
NCC(=O)Nc1ccc(-n2nc(C(F)(F)F)cc2-c2ccc3c(ccc4ccccc43)c2)cc1 [OSU-03012] | 992 nM | – | – | IC50 [2, 3]: 10000 nM
COc1cccc2c1C(=O)c1c(O)c3c(c(O)c1C2=O)C[C@@](O)(C(C)=O)C[C@@H]3O[C@H]1C[C@H](N)[C@H](O)[C@H](C)O1 [Daunorubicin] | 536 nM | – | No | –
O=C(Cc1ccc(-c2ccc(OCCN3CCOCC3)cc2)cn1)NCc1ccccc1 [KX-01] | – | 481 nM | – | IC50 [2, 5]: 19300 nM
CC(C)C[C@H](NC(=O)CNC(=O)c1cc(Cl)ccc1Cl)B1OC(=O)C(CC(=O)O)(CC(=O)O)O1 [Ixazomib citrate] | 196 nM | – | – | IC50 [2, 3]: 1580 nM
OCCCNc1cc(-c2ccnc(Nc3cccc(Cl)c3)n2)ccn1 [CGP-60474] | – | 794 nM | – | IC50 [2, 5]: 60000 nM
CC[C@@]1(O)C(=O)OCc2c1cc1n(c2=O)Cc2cc3c(CN(C)C)c(O)ccc3nc2-1 [Topotecan hydrochloride] | 51.4 nM | – | No | –
CC[C@@H]1C(=O)N(C)c2cnc(Nc3ccc(C(=O)N[C@H]4CC[C@H](N5CCN(CC6CC6)CC5)CC4)cc3OC)nc2N1C(C)C [Volasertib] | 64.8 nM | – | No | –
Cc1c2oc3c(C)ccc(C(=O)N[C@@H]4C(=O)N[C@H](C(C)C)C(=O)N5CCC[C@H]5C(=O)N(C)CC(=O)N(C)[C@@H](C(C)C)C(=O)O[C@@H]4C)c3nc-2c(C(=O)N[C@@H]2C(=O)N[C@H](C(C)C)C(=O)N3CCC[C@H]3C(=O)N(C)CC(=O)N(C)[C@@H](C(C)C)C(=O)O[C@@H]2C)c(N)c1=O [Actinomycin D] (I: T[dV]P[Sar][NMeV] / II: T[dV]P[Sar][NMeV]; ester I:1-I:C, II:1-II:C; linker I:N-II:N via Actinocin(9to1)) | – | 352 nM | No | –
CC(C)[C@]12O[C@H]1[C@@H]1O[C@]13[C@]1(O[C@H]1C[C@H]1C4=C(CC[C@@]13C)C(=O)OC4)[C@@H]2O [Triptolide] | 465 nM | – | No | –
C[C@H]1O[C@@H](O[C@H]2[C@@H](O)C[C@H](O[C@H]3[C@@H](O)C[C@H](O[C@H]4CC[C@@]5(C)[C@H](CC[C@@H]6[C@@H]5C[C@@H](O)[C@]5(C)[C@@H](C7=CC(=O)OC7)CC[C@]65O)C4)O[C@@H]3C)O[C@@H]2C)C[C@H](O)[C@@H]1O [Digoxin] | 152 nM | – | – | IC50 [2, 3]: 60000 nM
CC(C)c1nn(-c2c(Cl)cccc2Cl)c2nc(Cc3ccc(OCCO)cc3)[nH]c(=O)c12 [RGB-286147] | – | 268 nM | No | –
CCC[C@H](Nc1nc(-c2ccc(NC(=O)NCC)c(OC)c2)ncc1C)c1cccnc1 [Lexibulin hydrochloride] | 171 nM | – | No | –
COc1cccc2c1C(=O)c1c(O)c3c(c(O)c1C2=O)C[C@@](O)(C(=O)CO)C[C@@H]3O[C@H]1C[C@H](N)[C@@H](O)[C@H](C)O1 [Epirubicin hydrochloride] | 492 nM | – | – | –
CCc1c2c(nc3ccc(O)cc13)-c1cc3c(c(=O)n1C2)COC(=O)[C@]3(O)CC [SN-38] | – | 11.3 nM | No | –
CC[C@@H]1C(=O)N(C)c2cnc(Nc3ccc(C(=O)NC4CCN(C)CC4)cc3OC)nc2N1C1CCCC1 [BI-2536] | – | – | No | –
CC(=O)[C@]1(O)Cc2c(O)c3c(c(O)c2[C@@H](O[C@H]2C[C@H](N)[C@H](O)[C@H](C)O2)C1)C(=O)c1ccccc1C3=O [Idarubicin hydrochloride] | 168 nM | – | No | –
C/C=C(/C)C(=O)O[C@H]1C(C)=C2[C@H]([C@@H]1OC(=O)CCCCCCC)[C@@](C)(OC(C)=O)C[C@H](OC(=O)CCC)[C@@]1(O)[C@H]2OC(=O)[C@@]1(C)O [Thapsigargin] | 171 nM | – | – | IC50 [2, 3]: 40000 nM
C[C@H]1CCC/C=C/[C@@H]2C[C@H](O)C[C@H]2[C@H](O)/C=C/C(=O)O1 [Cyanein] | – | 432 nM | No | –
COc1c(C)c2c(c(O)c1C/C=C(\C)CCC(=O)OCCN1CCOCC1)C(=O)OC2 [Mycophenolate mofetil] | 529 nM | – | No | –

Compound | IC50 ([1]; Zika virus, HEK293, 48 h) | IC50 [1, 4] | Tox IC50 ([2]; cell-killing activity) | further results
Cn1cc(-c2[nH]c3cc(NC(=O)[C@H](N)C4CCCCC4)cc4c3c2C=NNC4=O)cn1 [PF-477736] | – | 489 nM | No | –
CC(C)C[C@H](NC(=O)CNC(=O)c1cc(Cl)ccc1Cl)B(O)O [MLN-2238] | 234 nM | – | – | IC50 [2, 3]: 2130 nM
CC[C@@]1(O)C(=O)OCc2c1cc1n(c2=O)Cc2cc3ccccc3nc2-1 [(S)-(+)-Camptothecin] | – | 26.4 nM | No | –
C/C=C(\C)C(=O)N[C@@H](c1ccccc1)[C@@H](O)C(=O)O[C@H]1C[C@@]2(O)[C@@H](OC(=O)c3ccccc3)[C@@H]3[C@]4(OC(C)=O)CO[C@@H]4C[C@H](O)[C@@]3(C)C(=O)[C@H](OC(C)=O)C(=C1C)C2(C)C [Cephalomannine] | 221 nM | – | No | –
CC[C@]1(O)C[C@@H]2CN(CCc3c([nH]c4ccccc34)[C@@](C(=O)OC)(c3cc4c(cc3OC)N(C)[C@H]3[C@@](O)(C(N)=O)[C@H](O)[C@]5(CC)C=CCN6CC[C@]43[C@@H]65)C2)C1 [Vindesine sulfate salt] | 664 nM | – | No | –
CC(=O)O[C@H]1C(=O)[C@@]2(C)[C@H]([C@H](OC(=O)c3ccccc3)[C@]3(O)C[C@H](OC(=O)[C@H](O)[C@@H](NC(=O)c4ccccc4)c4ccccc4)C(C)=C1C3(C)C)[C@]1(OC(C)=O)CO[C@@H]1C[C@@H]2O [PACLITAXEL] | 89.4 nM | – | No | –
CN[C@@H]1C[C@H]2O[C@@](C)([C@@H]1OC)n1c3ccccc3c3c4c(c5c6ccccc6n2c5c31)C(=O)N[C@H]4O [7-Hydroxystaurosporine] | – | 760 nM | – | IC50 [2, 5]: 102000 nM
C[C@@H]1C[C@@H]([C@H](O)CC2CC(=O)NC(=O)C2)C(=O)[C@@H](C)C1 [Cycloheximide] | 287 nM | – | No | –
CC[C@]1(O)C[C@H]2CN(CCc3c([nH]c4ccccc34)[C@@](C(=O)OC)(c3cc4c(cc3OC)N(C=O)[C@H]3[C@@](O)(C(=O)OC)[C@H](OC(C)=O)[C@]5(CC)C=CCN6CC[C@]43[C@@H]65)C2)C1 [Vincristine sulfate] | 156 nM | – | No | –
CCC1=C[C@@H]2CN(C1)Cc1c([nH]c3ccccc13)[C@@](C(=O)OC)(c1cc3c(cc1OC)N(C)[C@H]1[C@@](O)(C(=O)OC)[C@H](OC(C)=O)[C@]4(CC)C=CCN5CC[C@]31[C@@H]54)C2 [Vinorelbine tartrate] | 270 nM | – | No | –
CC(C)C[C@H](NC(=O)[C@@H](NC(=O)c1cccc(-c2ccccc2)n1)[C@@H](C)O)B(O)O [Delanzomib] | 58.5 nM | – | – | IC50 [2, 3]: 300 nM
COC(=O)[C@]12CCC(C)(C)C[C@H]1[C@H]1C(=O)C=C3[C@@]4(C)C=C(C#N)C(=O)C(C)(C)[C@@H]4CC[C@@]3(C)[C@]1(C)CC2 [Bardoxolone methyl] | 282 nM | – | – | IC50 [2, 3]: 2680 nM
Nc1ccc(-c2ccc3ncc4ccc(=O)n(-c5cccc(C(F)(F)F)c5)c4c3c2)cn1 [Torin-2] | – | 724 nM | No | –
O=c1[nH]c(=O)n([C@H]2C[C@H](O)[C@@H](CO)O2)cc1F [Floxuridine] | 918 nM | – | – | IC50 [2, 3]: 60000 nM
O=c1[nH]c2ccc(Cl)cc2c(N[C@@H]2CN3CCC2CC3)c1-c1nc2ccccc2[nH]1 [CHIR-124] | – | 405 nM | – | IC50 [2, 5]: 3250 nM
COc1c(C)c2c(c(O)c1C/C=C(\C)CCC(=O)O)C(=O)OC2 [Mycophenolic acid] | 539 nM | – | No | –
Cn1c2ccccc2c2c3c(c4c5ccccc5n(CCC#N)c4c21)CNC3=O [Go-6976] | 944 nM | – | – | IC50 [2, 3]: 20200 nM
CC[C@H](CC#N)OC(=O)N[C@@H](C)c1cccc(NC(=O)Nc2ccc(-c3cnco3)c(OC)c2)c1 [AVN-944] | 136 nM | – | – | IC50 ([2]; Homo sapiens, HEK293, read-out: Tox IC50): 20000 nM
CC[C@@]1(O)C(=O)OCc2c1cc1n(c2=O)Cc2cc3cc(O)ccc3nc2-1 [10-hydroxycamptothecin] | – | 46.6 nM | No | –
Cc1ccc(C(=O)N(CCCN)[C@@H](c2nc3cc(Cl)ccc3c(=O)n2Cc2ccccc2)C(C)C)cc1 [Ispinesib] | 67.4 nM | – | – | IC50 [2, 3]: 37500 nM
Cc1ccc([N+](=O)[O-])cc1S(=O)(=O)N(C)/N=C/c1cnc2ccc(Br)cn12 [PIK-75] | – | 616 nM | No | –
CS[C@H]1SC[C@H]2C(=O)N(C)[C@@H](C(C)C)C(=O)OC[C@@H](NC(=O)c3cnc4ccccc4n3)C(=O)N[C@@H](C)C(=O)N(C)[C@@H]1C(=O)N(C)[C@@H](C(C)C)C(=O)OC[C@@H](NC(=O)c1cnc3ccccc3n1)C(=O)N[C@@H](C)C(=O)N2C [Echinomycin] | 17.4 nM | – | No | –
